#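 Five concentrations, 48 hours, 96-well plates. GI50 is the concentration that inhibits growth by half. TGI denotes the concentration required for complete inhibition of growth.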
# What was measured:
# Test in all cases: NCI-60 cell line screen, 48 h
# UO-31 renal = system: UO-31 renal
# SF-539 CNS = system: SF-539 CNS
# SN12C renal = system: SN12C renal
# NCI-H460 lung = system: NCI-H460 lung
# U251 CNS = system: U251 CNS
# LOX IMVI melanoma = system: LOX IMVI melanoma
# SK-MEL-5 melanoma = system: SK-MEL-5 melanoma
# HCC-2998 colon = system: HCC-2998 colon
# HOP-92 NSCLC = system: HOP-92 NSCLC
# HCT-15 colon = system: HCT-15 colon
Structure (SMILES),GI50 (UO-31 renal),TGI (UO-31 renal),GI50 (SF-539 CNS),TGI (SF-539 CNS),GI50 (SN12C renal),TGI (SN12C renal),GI50 (NCI-H460 lung),TGI (NCI-H460 lung),GI50 (U251 CNS),TGI (U251 CNS),GI50 (LOX IMVI melanoma),TGI (LOX IMVI melanoma),GI50 (SK-MEL-5 melanoma),TGI (SK-MEL-5 melanoma),GI50 (HCC-2998 colon),TGI (HCC-2998 colon),GI50 (HOP-92 NSCLC),TGI (HOP-92 NSCLC),GI50 (HCT-15 colon),TGI (HCT-15 colon)
CN(C)c1ccc2c(c1)OC(N)=C(C#N)C2c1ccc2c(c1)CCO2 (stereo not given),0.362 µM,35.4 µM,0.118 µM,0.519 µM,0.644 µM,42.5 µM,< 0.0231 µM,18.3 µM,0.198 µM,29.8 µM,0.053 µM,17.9 µM,< 0.0427 µM,15.1 µM,0.469 µM,> 100 µM,5.69 µM,74.3 µM,< 0.0262 µM,> 100 µM
Cc1ccc(CNc2c3ccccc3nc3cc(NC(=O)CCN4CCCC4)ccc23)cc1,1.25 µM,2.54 µM,0.618 µM,1.9 µM,0.479 µM,1.74 µM,0.365 µM,1.25 µM,0.688 µM,2.05 µM,0.515 µM,1.76 µM,1.54 µM,2.89 µM,0.573 µM,2.01 µM,0.516 µM,2.13 µM,1.29 µM,2.63 µM
CN1c2ccccc2N(C)C23N(C)c4ccccc4N(C)C12N(C)c1ccccc1N3C (stereo not given),–,> 100 µM,–,> 100 µM,–,> 100 µM,–,> 100 µM,–,> 100 µM,–,> 100 µM,–,> 100 µM,–,> 100 µM,–,> 100 µM,–,> 100 µM
CCc1ccc(NC(=O)COC(=O)c2cc([N+](=O)[O-])ccc2Sc2nnnn2C)cc1,24.9 µM,> 100 µM,16.7 µM,42.8 µM,33.2 µM,> 100 µM,13 µM,33.3 µM,15.4 µM,34.1 µM,6.75 µM,22 µM,4.64 µM,18 µM,15.7 µM,29.2 µM,22.8 µM,82.7 µM,13 µM,37.3 µM
Clc1nc(Cl)c2ncn(C/C=C/COc3cccc(OC/C=C/Cn4cnc5c(Cl)nc(Cl)nc54)c3)c2n1,> 100 µM,> 100 µM,> 100 µM,> 100 µM,> 100 µM,> 100 µM,> 100 µM,> 100 µM,65.6 µM,> 100 µM,25.9 µM,> 100 µM,53.5 µM,> 100 µM,42.1 µM,> 100 µM,> 100 µM,> 100 µM,57.7 µM,> 100 µM
Nc1nc(Nc2ccc(C3CCC(N4CCOCC4)CC3)cc2)nn1-c1ccccn1 (stereo not given),2.48 µM,> 33.7 µM,1.42 µM,4.99 µM,2.4 µM,> 100 µM,4.59 µM,> 69.2 µM,5.05 µM,> 100 µM,3.24 µM,9.37 µM,20.8 µM,> 88.3 µM,17.2 µM,> 100 µM,1.59 µM,> 27.5 µM,3.6 µM,> 100 µM

# Reference: PubChem BioAssay (NCI)
